Some test systems named below: SW-620 colon; SF-539 CNS; OVCAR-3 ovarian; OVCAR-5 ovarian; 786-0 renal; M14 melanoma; HCC-2998 colon; SNB-75 CNS; HS 578T breast; HCT-116 colon.
Test in all cases: growth of human tumour cells (NCI), 48 h

Molecules are shown by their SMILES.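 How tested: cells in 96-well plates exposed to compound for 48 hours at five concentrations. GI50 marks 50% less growth. At the TGI there is no net growth.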

Regarding `O=C(Nc1ccc(F)cc1F)c1cc(Cl)ccc1O`, the GI50 in the assay with SW-620 colon is 2610 nM; with SF-539 CNS, 1010 nM; in the assay with OVCAR-3 ovarian, 955 nM; in the assay on OVCAR-5 ovarian, 4.4 µM; in the assay on 786-0 renal it was 2.71 µM; in the assay with M14 melanoma, 446 nM. Besides, the GI50 in the assay on HCC-2998 colon is 2970 nM; in the assay on SNB-75 CNS it was 1090 nM; in the assay on HS 578T breast it was 978 nM; with HCT-116 colon it was 1230 nM. In addition, the TGI in the assay on SW-620 colon was 18.7 µM; in the assay with SF-539 CNS, 9.9 µM; in the assay on OVCAR-3 ovarian, 16.8 µM; in the assay on OVCAR-5 ovarian it was over 100 µM; in the assay on 786-0 renal it was 7.69 µM; in the assay with M14 melanoma, 4.18 µM. Moreover, the TGI amounted to 9.51 µM in the assay on HCC-2998 colon, 3.79 µM with SNB-75 CNS, 7.25 µM with HS 578T breast and 3.31 µM with HCT-116 colon.

With `O=C(/C=C/c1ccc(O)c(O)c1)NCc1c[nH]c2ccccc12`, the GI50 in the assay on SW-620 colon was 58600 nM; in the assay on SF-539 CNS it was 38900 nM; in the assay on OVCAR-3 ovarian, 28400 nM; in the assay on OVCAR-5 ovarian, over 100 µM; in the assay on 786-0 renal it was 39.7 µM; in the assay with M14 melanoma it was 64800 nM. Besides, the GI50 in the assay on HCC-2998 colon was 35700 nM; in the assay with SNB-75 CNS, 82400 nM; in the assay with HS 578T breast, 73700 nM; in the assay on HCT-116 colon, 62200 nM. The TGI in the assay on SW-620 colon, in the assay on SF-539 CNS, in the assay with OVCAR-3 ovarian, in the assay on OVCAR-5 ovarian, in the assay with 786-0 renal and in the assay on M14 melanoma was over 100 µM throughout. The TGI in the assay with HCC-2998 colon was 76.1 µM; in the assay on SNB-75 CNS, over 100 µM; in the assay on HS 578T breast, over 100 µM; in the assay with HCT-116 colon, over 100 µM.

Turning to `CCCCCN(CCCCC)CC(O)c1cc(Cl)ccc1OC` (stereo not given), the GI50 was 4660 nM in the assay with SW-620 colon; 10800 nM in the assay on SF-539 CNS; 10800 nM with OVCAR-3 ovarian; 10.4 µM with OVCAR-5 ovarian; 13 µM in the assay on 786-0 renal; 8810 nM in the assay with M14 melanoma. In addition, the GI50 was 5720 nM with HCC-2998 colon, 197 nM with SNB-75 CNS, 12900 nM in the assay with HS 578T breast and 2490 nM with HCT-116 colon. Also, the TGI worked out at 18.2 µM in the assay on SW-620 colon; 24.3 µM in the assay on SF-539 CNS; 23.6 µM in the assay on OVCAR-3 ovarian; 23.8 µM in the assay with OVCAR-5 ovarian; 27.4 µM in the assay with 786-0 renal; 22.6 µM with M14 melanoma. Further, the TGI stood at 17.8 µM with HCC-2998 colon, 5.83 µM in the assay on SNB-75 CNS, 33.6 µM in the assay with HS 578T breast and 12.6 µM in the assay with HCT-116 colon.

Consider `O=[N+]([O-])c1nccn1CC(O)CN1CCCCC1` (stereo not given), for which the TGI with SW-620 colon, with SF-539 CNS, in the assay with OVCAR-3 ovarian, in the assay on OVCAR-5 ovarian, with 786-0 renal and with M14 melanoma was over 100 µM throughout. Besides, the TGI with HCC-2998 colon, in the assay with SNB-75 CNS, with HS 578T breast and with HCT-116 colon was over 100 µM in each case.

`CCN1CCN(c2cc(C)nc(N(CCCNc3ccnc4cc(Cl)ccc34)Cc3ccc4c(c3)OCO4)n2)CC1`: the GI50 is 2810 nM in the assay on SW-620 colon; 1730 nM with SF-539 CNS; 2350 nM in the assay on OVCAR-3 ovarian; 5.32 µM in the assay on OVCAR-5 ovarian; 1.81 µM with 786-0 renal; 1890 nM with M14 melanoma. In addition, the GI50 is 2400 nM with HCC-2998 colon, 1590 nM in the assay on SNB-75 CNS, 1930 nM in the assay on HS 578T breast and 2450 nM with HCT-116 colon. Besides, the TGI is 12.5 µM with SW-620 colon; 3.21 µM in the assay on SF-539 CNS; 6.09 µM with OVCAR-3 ovarian; over 100 µM with OVCAR-5 ovarian; 3.8 µM in the assay with 786-0 renal; 3.5 µM in the assay on M14 melanoma. Further, the TGI turned out to be 5.39 µM in the assay with HCC-2998 colon, 3.57 µM with SNB-75 CNS, 5.26 µM in the assay with HS 578T breast and 13.6 µM in the assay with HCT-116 colon.

With `CCCCCCCCOC(=O)c1c(C)[nH]c(/C=C2\N=C(c3ccc[nH]3)C=C2OC)c1C`, the GI50 in the assay with SW-620 colon is under 18.1 nM; in the assay on SF-539 CNS, 52.9 nM; in the assay on OVCAR-3 ovarian, 27.6 nM; with OVCAR-5 ovarian, 0.0943 µM; with 786-0 renal, 0.0407 µM; in the assay with M14 melanoma, 35.1 nM. Besides, the GI50 with HCC-2998 colon was 39.8 nM; in the assay with SNB-75 CNS, 45.1 nM; with HS 578T breast, 49.4 nM; in the assay with HCT-116 colon, under 17.7 nM. Also, the TGI is 1.56 µM in the assay on SW-620 colon; 2.62 µM in the assay on SF-539 CNS; 0.422 µM in the assay on OVCAR-3 ovarian; 3.45 µM in the assay on OVCAR-5 ovarian; 1.32 µM in the assay with 786-0 renal; 2.01 µM in the assay on M14 melanoma. Moreover, the TGI amounted to 3.46 µM with HCC-2998 colon, 0.432 µM in the assay with SNB-75 CNS, 0.578 µM in the assay with HS 578T breast and 1.25 µM with HCT-116 colon.

For the compound `NS(=O)(=O)c1ccc(N=Nc2c(O)[nH]c3ccc(C(=O)NCc4ccncc4)cc23)cc1`, the GI50 is over 25000 nM in the assay with SW-620 colon; over 25000 nM in the assay with SF-539 CNS; over 25000 nM with OVCAR-3 ovarian; over 25 µM with OVCAR-5 ovarian; over 25 µM with 786-0 renal; over 25000 nM with M14 melanoma. For the same compound, the GI50 with HCC-2998 colon, in the assay on SNB-75 CNS, with HS 578T breast and with HCT-116 colon was over 25000 nM in each case. Besides, the TGI in the assay with SW-620 colon, in the assay on SF-539 CNS, in the assay on OVCAR-3 ovarian, in the assay on OVCAR-5 ovarian, in the assay with 786-0 renal and with M14 melanoma was over 25 µM throughout. The TGI in the assay on HCC-2998 colon, with SNB-75 CNS, in the assay with HS 578T breast and with HCT-116 colon was over 25 µM throughout.

Take `COc1cc2ncnc(-n3ncc4cc(NC(=O)Nc5ccc(Cl)c(Cl)c5)ccc43)c2cc1OC`: the GI50 in the assay on SW-620 colon is 2260 nM; in the assay with SF-539 CNS, 612 nM; with OVCAR-3 ovarian, 1920 nM; in the assay on OVCAR-5 ovarian, 1.83 µM; with 786-0 renal it was 1.56 µM; with M14 melanoma, 1650 nM. In addition, the GI50 was 2610 nM in the assay on HCC-2998 colon, 1240 nM with SNB-75 CNS, 2000 nM with HS 578T breast and 2800 nM in the assay on HCT-116 colon. Moreover, the TGI in the assay on SW-620 colon came to 4.76 µM; in the assay on SF-539 CNS, 2.47 µM; in the assay on OVCAR-3 ovarian, 3.7 µM; in the assay with OVCAR-5 ovarian it was 4.31 µM; with 786-0 renal it was 3.52 µM; in the assay with M14 melanoma, 3.58 µM. Moreover, the TGI with HCC-2998 colon is 8.87 µM; with SNB-75 CNS, 3.41 µM; in the assay on HS 578T breast it was 7.95 µM; in the assay on HCT-116 colon it was 10.3 µM.

As for `COc1cccc(CN(C)c2ccc(CO)c(Cl)c2)c1`, the GI50 in the assay with SW-620 colon was 4340 nM; in the assay with SF-539 CNS, 48000 nM; with OVCAR-3 ovarian, 2310 nM; in the assay with OVCAR-5 ovarian, 0.322 µM; in the assay with 786-0 renal, 13.9 µM; with M14 melanoma it was 25200 nM. The GI50 is 16900 nM with HCC-2998 colon, 22200 nM with SNB-75 CNS, 43600 nM with HS 578T breast and 243 nM in the assay with HCT-116 colon. The TGI with SW-620 colon is over 100 µM; in the assay with SF-539 CNS, over 100 µM; with OVCAR-3 ovarian, 10.6 µM; in the assay on OVCAR-5 ovarian it was 1.91 µM; in the assay on 786-0 renal it was over 67.6 µM; with M14 melanoma, over 100 µM. Besides, the TGI with HCC-2998 colon is 74.8 µM; in the assay on SNB-75 CNS, 98.4 µM; in the assay on HS 578T breast, over 100 µM; in the assay on HCT-116 colon, 14.1 µM.

In the case of `COc1ccc(C(=O)c2cc3c(N)c(C(=O)Nc4ccccc4)sc3nc2C)cc1`, the GI50 in the assay with SW-620 colon was 415 nM; in the assay with SF-539 CNS, 598 nM; in the assay with OVCAR-5 ovarian, 3.1 µM; with 786-0 renal, 4.73 µM; in the assay on M14 melanoma, 779 nM; in the assay with HCC-2998 colon, 1960 nM. In addition, the GI50 with SNB-75 CNS was 242 nM; with HS 578T breast, 331 nM; in the assay on HCT-116 colon, 635 nM. In addition, the TGI with SW-620 colon is over 100 µM; with SF-539 CNS it was 4.57 µM; with OVCAR-5 ovarian it was over 100 µM; with 786-0 renal it was over 100 µM; with M14 melanoma it was over 100 µM; in the assay on HCC-2998 colon, 55.3 µM. Also, the TGI in the assay with SNB-75 CNS was 5.92 µM; in the assay with HS 578T breast it was 67.5 µM; with HCT-116 colon it was over 100 µM.

For `Cn1cccc1-c1cc(-c2ccccc2)[nH]c(=O)c1C#N`, the GI50 with SW-620 colon was over 100000 nM; with SF-539 CNS, over 100000 nM; with OVCAR-3 ovarian, over 100000 nM; in the assay with OVCAR-5 ovarian it was over 100 µM; in the assay on 786-0 renal, over 100 µM; in the assay with HCC-2998 colon it was over 100000 nM. Moreover, the GI50 is 45100 nM with SNB-75 CNS, over 100000 nM with HS 578T breast and over 100000 nM in the assay on HCT-116 colon. The TGI in the assay with SW-620 colon, in the assay with SF-539 CNS, in the assay on OVCAR-3 ovarian, with OVCAR-5 ovarian, in the assay with 786-0 renal and in the assay on HCC-2998 colon was over 100 µM in each case. Further, the TGI in the assay with SNB-75 CNS, in the assay on HS 578T breast and in the assay on HCT-116 colon was over 100 µM in each case.

Consider `CCCn1cnc2c(SCC(=O)O)nc(N)nc21`, for which the TGI in the assay on SW-620 colon, in the assay with OVCAR-3 ovarian, in the assay on OVCAR-5 ovarian, with 786-0 renal, with M14 melanoma and with HCC-2998 colon was over 100 µM each time. Moreover, the TGI with SNB-75 CNS, in the assay on HS 578T breast and with HCT-116 colon was over 100 µM throughout.

(Values after PubChem BioAssay (NCI).)
